Laboratory results published in the NIST ThermoML archive (doi:10.1021/je300076y).
Numbers after ± are expanded uncertainties.

Assays:
[1] = Liquid; for mass density: 293.15 K, 101.33 kPa, Vibrating tube method
[2] = refractive index (Na D-line) (dimensionless); conditions: 101.33 kPa, Liquid, Standard Abbe refractometry

SMILES	mass density [1] [kg/m3]	vapor or sublimation pressure ([1]; 353.61 K) [kPa]	vapor or sublimation pressure ([1]; 353.71 K) [kPa]	refractive index ([2]; 293.15 K)	vapor or sublimation pressure ([1]; 472.25 K) [kPa]	refractive index ([2]; 293.1 K)	vapor or sublimation pressure ([1]; 439.35 K) [kPa]
CC(C)(C)O [2-methylpropan-2-ol]	788.4 ± 0.3	95.5 ± 2.5	95.5 ± 2.5	1.3877 ± 0.0007	–	–	–
CC(=O)c1ccccc1 [acetophenone]	1024.5 ± 0.3	–	–	–	95.5 ± 2.5	1.537 ± 0.0008	–
CCO[Si](OCC)(OCC)OCC [tetraethoxysilane]	935 ± 0.3	–	–	1.3835 ± 0.0007	–	–	95.5 ± 2.5
